Laboratory results reported in article PMC12977544, “Phenotypic high-throughput screening identifies modulators of gut microbial choline metabolism” (mBio, 2026).
Read-outs that look alike come from different tables or passages of the source.

Key:
Test in all cases: TMA inhibition in bacterial whole cells (LC–MS/MS of d9-TMA from d9-choline)
E. coli MS 200-1 = type: cell-based, Escherichia coli MS 200-1
Description: (§1) For TMA inhibition assays, E. coli and P. mirabilis were grown in NCE medium supplemented with 20 mM choline chloride, A. hydrogenalis was grown in MEGA medium supplemented with 3 mM choline chloride, and C. sporogenes was grown in BHI medium supplemented with 20 mM of choline chloride to induce expression of the cut gene cluster. For MIC assays, all bacteria strains were grown in MEGA medium.
(§2) Compounds were stored as 10 mM DMSO stocks at –20°C and diluted in DMSO to prepare varying concentrations of inhibitors for testing. Bacteria were grown anaerobically overnight in media supplemented with choline as described above. Cells were pelleted and resuspended in PBS, and d9-choline chloride was added to a final concentration of 1 mM. The final OD600 of the PBS cell resuspensions is as follows: 0.4 (E. coli), 0.15–0.2 (P. mirabilis), 0.2 (C. sporogenes), and 0.4 (A. hydrogenalis). The resuspended cells were added to 96-well plates containing inhibitors (final concentration of 1% DMSO, with final inhibitor concentrations ranging between 0 and 325 µM). The plates were sealed and incubated for 75 min (or 90 min for P. mirabilis) at 37°C. Following incubation, the plates were removed from the anaerobic chamber and analyzed immediately or kept at –20°C until LC–MS/MS analysis. Each inhibitor concentration was tested in triplicate. EC50 values were calculated with GraphPad Prism by fitting the log(inhibitor) vs response—Variable slope (four-parameter) model for non-linear regression.
(§3) Samples were kept frozen until analysis and kept cold on ice during handling due to the volatility of TMA. Bacterial cell resuspensions in PBS were diluted 100-fold in LCMS-grade acetonitrile with 0.1% formic acid to lyse cells, precipitate proteins, and extract metabolites. Samples were centrifuged at 4,000 rpm for 10 min at 4°C to pellet proteins. The supernatants were then further diluted 20-fold in LCMS-grade acetonitrile with 0.1% formic acid, and the resulting solution was analyzed by LC–MS/MS.
(§4) LC–MS/MS analysis was performed on an Agilent 1290/6470 Triple Quadrupole LC–MS instrument (Agilent Technologies) using electrospray ionization. The mass spectrometer was operated in multiple reaction monitoring (MRM) mode with positive ionization monitoring. The precursor–product ion pairs used in MRM mode were as follows: m/z 69.1m/z → 49.1 (d9-TMA) and m/z 113.2 m/z → 69.1 (d9-choline). The capillary voltage was set to 4.0 kV, and the fragmentor voltage was set to 30 V (d9-TMA) and 115 V (d9-choline). The collision energy for the precursor–product ion pairs was set to 29 V (d9-TMA) and 21 V (d9-choline). MS^1 resolution was set to wide and MS^2 resolution to unit. The drying gas temperature was maintained at 250°C, with a flow rate of 11 L/min and a nebulizer pressure of 45 psi. The time filter width used was 0.07 min. The injection volume of all samples was 1 μL. Samples were injected onto InfinityLab Poroshell 120 (Agilent) HILIC columns (2.7 μm, 100 mm × 2.1 mm, 100 Å) preceded by InfinityLab Poroshell 120 HILIC guard columns (2.1 mm, 1.9µm UHPLC guard). The LC conditions on the binary pump were as follows: a gradient of 5–35% A increasing over 1.95 min (1.2 mL/min), a gradient of 35–5% A decreasing over 0.05 min (1.6 mL/min), and held at 5% A for 0.5 min (2 mL/min). […] Solvent A was 10 mM ammonium formate with 0.1% formic acid, and solvent B was acetonitrile with 0.1% formic acid. Data analysis was performed with Mass Hunter Workstation Data Acquisition and Qualitative Analysis software (Agilent Technologies).

[1] = system: Clostridium sporogenes ATCC 15579; type: cell-based; settings: 1 mM d9-choline in PBS, 75 min, 37°C, anaerobic
Description: as §1, §2, §3, §4

[2] = system: Proteus mirabilis ATCC 29906; type: cell-based; settings: 1 mM d9-choline in PBS, 90 min, 37°C, anaerobic; for EC50: read-out: EC50 in whole cells, P. mirabilis (TMA inhibition)
Description: as §1, §2, §3, §4

[3] = system: Anaerococcus hydrogenalis DSM 7454; type: cell-based; settings: 1 mM d9-choline in PBS, 75 min, 37°C, anaerobic
Description: as §1, §2, §3, §4

[4] = Escherichia coli, MS2001, 1.25 h, 1 mM d9-choline in PBS, 75 min, 37°C, anaerobic
[5] = Clostridium sporogenes, ATCC15579, 1.25 h
[6] = Proteus mirabilis, ATCC29906, 1.5 h
[7] = Anaerococcus hydrogenalis, DSM7454, 1.25 h
[8] = 1 mM d9-choline in PBS, 75 min, 37°C, anaerobic

Structure (SMILES)	EC50 (E. coli MS 200-1; [4])	EC50 [1, 5]	EC50 [2, 6]	EC50 [1]	EC50 [2]	EC50 (E. coli MS 200-1; [8])	other results
Cc1ccc(-c2cc(C(=O)NCCCN3CCC(C)CC3)c(C)[nH]2)cc1C [C00002]	9 µM						
Cc1ccc(-c2cc(C(=O)NCCN3CCC(C)CC3)c(C)[nH]2)cc1C [C00003]	7 µM	213 µM	64 µM				EC50 [3, 7]: 176 µM
Cc1ccc(-c2cc(C(=O)NCCCCN3CCC(C)CC3)c(C)[nH]2)cc1C [C00004]	5 µM	138 µM	35 µM				EC50 [3, 7]: 27 µM
Cc1ccc(-c2cc(C(=O)NCCCCCN3CCC(C)CC3)c(C)[nH]2)cc1C [C00005]	11 µM	84 µM	66 µM				EC50 [3, 7]: 33 µM
Cc1ccc(-c2cc(C(=O)NCCC3=CCCCC3)c(C)[nH]2)cc1C [C00006]	> 100 µM						EC50 in whole cells, C. sporogenes (TMA inhibition) [1]: No inhibition at 100
COCCNC(=O)c1cc(-c2ccc(C)c(C)c2)[nH]c1C [C00007]							EC50 in whole cells, C. sporogenes (TMA inhibition) [1]: No inhibition at 100; EC50 in whole cells, E. coli (TMA inhibition) (E. coli MS 200-1; [8]): No inhibition at 100
Cc1ccc(-c2cc(C(=O)NCCN)c(C)[nH]2)cc1C [C00008]	140 µM						EC50 in whole cells, C. sporogenes (TMA inhibition) [1]: No inhibition at 312; EC50 in whole cells, P. mirabilis (TMA inhibition) [2]: No inhibition at 312
CCCNCCNC(=O)c1cc(-c2ccc(C)c(C)c2)[nH]c1C [C00009]	60 µM	> 312 µM	> 312 µM				
CCCN(CCC)CCNC(=O)c1cc(-c2ccc(C)c(C)c2)[nH]c1C [C00010]	200 µM	> 312 µM	> 312 µM				
Cc1ccc(-c2cc(C(=O)NCCCN3CCOCC3)c(C)[nH]2)cc1C [C00011]	> 125 µM						EC50 in whole cells, C. sporogenes (TMA inhibition) [1]: No inhibition at 312; EC50 in whole cells, P. mirabilis (TMA inhibition) [2]: No inhibition at 312
Cc1ccc(-c2cc(C(=O)NCCCN3CCN(C)CC3)c(C)[nH]2)cc1C [C00012]	14 µM	92 µM	58 µM				EC50 in whole cells, A. hydrogenalis (TMA inhibition) [3]: No inhibition at 312
Cc1ccc(-c2cc(C(=O)NCCCN3CCN(C)C(=O)C3)c(C)[nH]2)cc1C [C00013]	> 125 µM	> 312 µM					EC50 in whole cells, P. mirabilis (TMA inhibition) [2]: No inhibition at 312
Cc1ccc(-c2cc(C(=O)NCCCN3CCCC3)c(C)[nH]2)cc1C [C00014]	11 µM	78 µM	104 µM				EC50 [3, 7]: 83 µM
Cc1ccc(-c2cc(C(=O)NCCCN3CCCCC3)c(C)[nH]2)cc1C [C00015]	10 µM	267 µM	193 µM				EC50 [3, 7]: 244 µM
Cc1ccc(-c2cc(C(=O)NCCCN3CCCCCC3)c(C)[nH]2)cc1C [C00016]	2 µM	104 µM	40 µM				EC50 [3, 7]: 43 µM
Cc1ccc(-c2cc(C(=O)NCCCN3CCCCCCC3)c(C)[nH]2)cc1C [C00017]	3 µM	40 µM	28 µM				EC50 [3, 7]: 28 µM
Cc1ccc(-c2cc(C(=O)NCCCCN3CCCCCC3)c(C)[nH]2)cc1C [C00018]	8 µM	68 µM	33 µM				EC50 [3, 7]: 7 µM

Structure (SMILES)	EC50 (E. coli MS 200-1; [4])	EC50 [1, 5]	EC50 [2, 6]	EC50 [1]	EC50 [2]	EC50 (E. coli MS 200-1; [8])	other results
Cc1ccc(-c2cc(C(=O)NCCCCCN3CCCCCC3)c(C)[nH]2)cc1C [C00019]	2 µM						
Cc1ccc(-c2[nH]cc(C(=O)NCCCN3CCC(C)CC3)c2C)cc1C [Compound 8]				97 µM	131 µM	> 125 µM	Fold increase of EC50 in E. coli (E. coli MS 200-1; compared with compound 6): more than 10 fold
CCc1[nH]c(-c2ccc(C)c(C)c2)cc1C(=O)NCCCN1CCC(C)CC1 [Compound 9]				103 µM		35 µM	
Cc1ccc(-c2ccc(C(=O)NCCCN3CCC(C)CC3)[nH]2)cc1C [Compound 10]				312 µM	63 µM	98 µM	
Cc1ccc(-c2c[nH]c(C(=O)NCCCN3CCC(C)CC3)c2)cc1C [Compound 11]				> 312 µM	42 µM	13 µM	
Cc1ccc(-c2cc(C(=O)NCCCN3CCC(C)CC3)c(C)o2)cc1C [Compound 12]					> 312 µM	15 µM	EC50 [3]: 54 µM
Cc1ccc(-c2cc(C(=O)NCCCN3CCC(C)CC3)cs2)cc1C [Compound 13]				85 µM	50 µM	14 µM	
Cc1ccc(-c2ncc(C(=O)NCCCN3CCC(C)CC3)s2)cc1C [Compound 14]				215 µM	197 µM	27 µM	
Cc1ccc(-c2cc(C(=O)NCCCN3CCC(C)CC3)cn2C)cc1C [Compound 15]					98 µM	21 µM	
C#CCn1c(-c2ccc(C)c(C)c2)cc(C(=O)NCCCN2CCC(C)CC2)c1C [Compound 16]				5 µM		39 µM	
Cc1ccc(-c2cc(C(=O)NCCCN3CCC(C)CC3)c(C)n2C2CCCC2)cc1C [Compound 17]				8 µM		69 µM	
Cc1ccc(-c2cc(C(=O)NCCCN3CCC(C)CC3)c(C)n2-c2ccccc2)cc1C [Compound 18]				3 µM		489 µM	
Cc1[nH]c(C2CCCCC2)cc1C(=O)NCCCN1CCC(C)CC1 [Compound 21]				8 µM		51 µM	EC50 [3]: 32 µM
Cc1[nH]c(-c2ccccc2)cc1C(=O)NCCCN1CCC(C)CC1 [Compound 22]				147 µM	157 µM	7 µM	EC50 [3]: 24 µM
Cc1ccc(-c2cc(C(=O)NCCCN3CCC(C)CC3)c(C)[nH]2)cc1 [Compound 24]					131 µM	92 µM	
Cc1cc(C)cc(-c2cc(C(=O)NCCCN3CCC(C)CC3)c(C)[nH]2)c1 [Compound 25]				133 µM	28 µM	6 µM	EC50 [3]: 19 µM
